Measurements published in the supplement of paper PMC10307832.

Columns and labels:
Assay in all cases: relative viability (nuclei count vs DMSO), 5 days (fraction); higher = more cells survive
17-AAG + Pemetrexed = compound: C=CCNC1=C2C[C@@H](C)C[C@H](OC)[C@H](O)[C@@H](C)/C=C(\C)[C@H](OC(N)=O)[C@@H](OC)/C=C\C=C(/C)C(=O)NC(=CC1=O)C2=O [17-AAG] + Nc1nc2[nH]cc(CCc3ccc(C(=O)N[C@@H](CCC(=O)O)C(=O)O)cc3)c2c(=O)[nH]1 [Pemetrexed] (partner 0.2 µM)
Method in brief: (§1)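 Lung cancer cell lines in 1536-well plates got either a single drug or a fixed anchor-drug dose together with five library-drug doses (not always all listed) in √10 steps, by pin tool, on the day after seeding. Nuclei were counted after 5 days, and relative viability is the treated-to-vehicle ratio of nuclei counts. Values are medians of duplicate plates.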

17-AAG + Vorinostat = compound: C=CCNC1=C2C[C@@H](C)C[C@H](OC)[C@H](O)[C@@H](C)/C=C(\C)[C@H](OC(N)=O)[C@@H](OC)/C=C\C=C(/C)C(=O)NC(=CC1=O)C2=O [17-AAG] + O=C(CCCCCCC(=O)Nc1ccccc1)NO [Vorinostat] (partner 1 µM)
Method in brief: as §1

17-AAG + Olaparib = compound: C=CCNC1=C2C[C@@H](C)C[C@H](OC)[C@H](O)[C@@H](C)/C=C(\C)[C@H](OC(N)=O)[C@@H](OC)/C=C\C=C(/C)C(=O)NC(=CC1=O)C2=O [17-AAG] + O=C(c1cc(Cc2n[nH]c(=O)c3ccccc23)ccc1F)N1CCN(C(=O)C2CC2)CC1 [Olaparib] (partner 8 µM)
Method in brief: as §1

17-AAG + Linsitinib = compound: C=CCNC1=C2C[C@@H](C)C[C@H](OC)[C@H](O)[C@@H](C)/C=C(\C)[C@H](OC(N)=O)[C@@H](OC)/C=C\C=C(/C)C(=O)NC(=CC1=O)C2=O [17-AAG] + C[C@]1(O)C[C@@H](c2nc(-c3ccc4ccc(-c5ccccc5)nc4c3)c3c(N)nccn32)C1 [Linsitinib] (partner 1 µM)
Method in brief: as §1

Cell Line	relative viability (17-AAG + Pemetrexed; first compound 0.00128 µM)	relative viability (17-AAG + Pemetrexed; first compound 0.004048 µM)	relative viability (17-AAG + Pemetrexed; first compound 0.0128 µM)	relative viability (17-AAG + Pemetrexed; first compound 0.04048 µM)	relative viability (17-AAG + Pemetrexed; first compound 0.128 µM)	relative viability (17-AAG + Vorinostat; first compound 0.00128 µM)	relative viability (17-AAG + Vorinostat; first compound 0.004048 µM)	relative viability (17-AAG + Vorinostat; first compound 0.0128 µM)	relative viability (17-AAG + Vorinostat; first compound 0.04048 µM)	relative viability (17-AAG + Vorinostat; first compound 0.128 µM)	relative viability (17-AAG + Olaparib; first compound 0.00128 µM)	relative viability (17-AAG + Olaparib; first compound 0.004048 µM)	relative viability (17-AAG + Olaparib; first compound 0.0128 µM)	relative viability (17-AAG + Olaparib; first compound 0.04048 µM)	relative viability (17-AAG + Olaparib; first compound 0.128 µM)	relative viability (17-AAG + Linsitinib; first compound 0.00128 µM)	relative viability (17-AAG + Linsitinib; first compound 0.004048 µM)	relative viability (17-AAG + Linsitinib; first compound 0.0128 µM)	relative viability (17-AAG + Linsitinib; first compound 0.04048 µM)	relative viability (17-AAG + Linsitinib; first compound 0.128 µM)
LCLC-103H	0.452	0.48	0.461	0.557	0.61	0.883	0.844	0.731	0.832	0.818	0.841	0.745	0.755	0.823	0.831	1.15	1.12	1.13	0.965	0.992
LK-2	0.266	0.292	0.211	0.101	0.0875	0.323	0.445	0.178	0.174	0.236	0.831	0.765	0.266	0.149	0.123	0.575	0.463	0.615	0.479	0.136
LOU-NH91	0.392	0.371	0.304	0.302	0.371	0.86	0.735	0.547	0.482	0.336	0.894	0.759	0.546	0.395	0.386	0.874	0.678	0.587	0.478	0.311
LU99A	0.175	0.184	0.165	0.188	0.111	0.479	0.476	0.301	0.203	0.127	0.271	0.26	0.237	0.165	0.162	0.484	0.671	0.449	0.24	0.174
LXF-289	0.889	0.874	0.575	0.201	0.0927	0.765	0.759	0.402	0.214	0.115	1.06	0.936	0.889	0.817	0.135	0.964	0.954	0.924	0.52	0.179
NCI-H23	0.564	0.735	0.442	0.202	0.147	0.635	0.373	0.344	0.129	0.116	0.364	0.296	0.155	0.109	0.107	0.554	0.511	0.486	0.174	0.157
NCI-H322M	0.659	0.652	0.42	0.348	0.366	0.987	1.15	0.569	0.383	0.482	0.781	0.857	0.409	0.418	0.414	1.04	0.938	0.99	0.484	0.334
NCI-H358	0.156	0.19	0.126	0.0833	0.0832	0.703	0.439	0.113	0.0837	0.0628	0.606	0.522	0.0873	0.0667	0.0637	0.817	0.892	0.148	0.161	0.131
NCI-H441	0.255	0.28	0.284	0.106	0.125	0.968	0.996	0.617	0.128	0.121	0.555	0.547	0.208	0.135	0.124	0.679	0.661	0.276	0.174	0.0829
NCI-H460	0.0582	0.0712	0.0849	0.0247	0.0362	0.733	0.41	0.0303	0.0238	0.0231	0.476	0.318	0.0627	0.0448	0.0462	0.771	0.0998	0.0141	0.0124	0.009
NCI-H520	0.604	0.7	0.261	0.127	0.129	0.75	0.662	0.433	0.174	0.181	0.34	0.232	0.162	0.136	0.12	0.987	0.856	0.728	0.144	0.122
NCI-H596	0.558	0.542	0.508	0.505	0.337	0.654	0.582	0.692	0.576	0.323	0.784	0.739	0.674	0.48	0.371	1.12	0.93	0.943	0.82	0.783
NCI-H647	0.203	0.179	0.102	0.0945	0.0923	0.584	0.533	0.132	0.116	0.0825	0.575	0.237	0.0687	0.0686	0.0642	1.16	0.596	0.18	0.118	0.074
NCI-H650	1.03	0.895	0.91	0.657	0.236	0.443	0.497	0.477	0.32	0.193	0.392	0.355	0.412	0.212	0.0846	0.865	0.908	0.788	0.314	0.177
